Paper PMC5126104, “Identification of a Chemoreceptor in Pseudomonas aeruginosa That Specifically Mediates Chemotaxis Toward α-Ketoglutarate” (Frontiers in Microbiology, 2016)

What was measured:
[1] = target: T1, McpK (PA5072) chemoreceptor ligand binding domain (Pseudomonas aeruginosa, UniProt Q9HUB1); set-up: thermal shift assay with SYPRO Orange, Tm change of recombinant McpK-LBD; conditions: binder
T1 construct: McpK-LBD, Arg38–Ser293
Experimental: Thermal shift assays were performed using a BioRad MyIQ2 Real-Time PCR instrument. Ligands were prepared by dissolving Biolog Phenotype Microarray compounds in 50 μl of MilliQ water to obtain a final concentration of around 10–20 mM (as indicated by the manufacturer). Screening was performed with plates PM1, PM2A, PM3B, PM4A, and PM5. Each plate contains 95 compounds and a control (Supplementary Figure S1). Each 25 μl assay mixture contained 40 μM protein in 5 mM Tris, 5 mM Pipes, 5 mM Mes, pH8.0 and SYPRO orange (Life Technologies) at 5x concentration. Aliquots of 2.5 μl of the resuspended Biolog compounds were added to each well. Samples were heated from 23°C to 85°C at a scan rate of 1°C/min. The protein unfolding curves were monitored by detecting changes in SYPRO Orange fluorescence. Melting temperatures were determined using the first derivative values from the raw fluorescence data. […] Ligands tested included different bacterial carbon-, nitrogen-, phosphorous-, and sulfur sources as well as to nutrient supplements, which are listed in Supplementary Figure S1. A total of 13 compounds were identified that increased or decreased the Tm by at least 2°C (Supplementary Table S2), which is the generally accepted threshold for a relevant ligand-induced change in protein stability.

[2] = target: T1, McpK (PA5072) chemoreceptor ligand binding domain; assay: ITC (two symmetric-site cooperative model; Kd1 =[…], Kd2 =[…]); supported by thermal shift (+[…]°C) and AUC dimer stabilization
[3] = target: the molecule itself; assay: AUC; sedimentation velocity, McpK-LBD (10-50 uM) with 1 mM alpha-ketoglutarate, 7 °C, 5 mM Tris, 5 mM PIPES, 5 mM MES, pH 8.0; c(s) analysis in SEDFIT
[4] = target: the molecule itself; assay: AUC; sedimentation equilibrium, multi-speed, ligand-free McpK-LBD at 40, 50 and 60 uM, 7 °C, dialysis buffer (5 mM Tris, 5 mM PIPES, 5 mM MES, pH 8.0); global fit in SEDPHAT; dimer to monomers
[5] = target: the molecule itself; assay: AUC; sedimentation equilibrium, multi-speed, McpK-LBD at 40, 50 and 60 uM with 1 mM alpha-ketoglutarate, 7 °C, dialysis buffer (5 mM Tris, 5 mM PIPES, 5 mM MES, pH 8.0); global fit in SEDPHAT; dimer to monomers

| Molecule | Tm Shift (°C) [1] | other results |
| --- | --- | --- |
| NCCCCC(=O)O [5-Aminovaleric acid] | +3.9 °C |  |
| CC(=O)O [Acetate] | -0.2 °C |  |
| CCCC(=O)O [Butyrate] | +0.7 °C |  |
| NC(=O)OP(=O)(O)O [Carbamyl phosphate] | +3.5 °C |  |
| O=C(O)CC(O)(CC(=O)O)C(=O)O [Citrate] | +0.8 °C |  |
| O=C1O[C@@H]([C@H](O)CO)[C@H](O)[C@H]1O [D-Galactonic acid-γ-lactone] | +2 °C |  |
| O=C(O)[C@H]1OC(O)[C@H](O)[C@@H](O)[C@H]1O (stereo partly drawn) [D-Galacturonic acid] | +2.3 °C |  |
| N[C@@H](C(=O)O)[C@@H](O)[C@H](O)[C@H](O)CO [D-Glucosaminic acid] | +3.5 °C |  |
| O=C(O)/C=C/C(=O)O [Fumarate] | +0.3 °C |  |
| C=C(CC(=O)O)C(=O)O [Itaconate] | -2.2 °C |  |
| N[C@@H](CCC(=O)O)C(=O)O [L-Glutamic acid] | +2.3 °C |  |
| NC(=O)CC[C@H](N)C(=O)O [L-Glutamine] | +2.2 °C |  |
| CC(O)C(=O)O (stereo not drawn) [Lactate] | +0.2 °C |  |
| O=C(O)CC(O)C(=O)O (stereo not drawn) [Malate] | +0.5 °C |  |
| COC(=O)C(C)=O [Methyl pyruvate] | +3.3 °C |  |
| O=C(O)CC(=O)C(=O)O [Oxaloacetate] | +0 °C |  |
| NCCc1ccccc1 [Phenylethylamine] | +3.5 °C |  |
| CC(=O)C(=O)O [Pyruvate] | +0.1 °C |  |
| O=C(O)CCC(=O)O [Succinate] | -0.3 °C |  |
| O=C(O)CC(CC(=O)O)C(=O)O [Tricarballylate] | +0.3 °C |  |
| O=c1cc[nH]c(=O)[nH]1 [Uracil] | +4.2 °C |  |
| O=C(O)CCC(=O)C(=O)O [α-ketoglutarate] | +5.2 °C | Kd [2]: 80.9 µM |
| NCCCC(=O)O [γ-Aminobutyric acid] | +4.1 °C |  |
| McpK ligand binding domain (McpK-LBD) (domain or fragment, Pseudomonas aeruginosa PAO1, UniProt Q9HUB1 38-293, looked up, No removal of the tag is described; In monomer-dimer equilibrium by AUC; also called PA5072-LBD; source: E. coli BL21 (DE3), pET28-McpK-LBD, purified (HisTrap column)) RTLTHQTALSEQLAEVASLMEQTQQAEQGRLAFEAGSDPRQAEQVRQTLAGMLQRLQALRDSELDPAALAHQVEAIEAYRKAFDDLAAADQQRSAARGVLVGTAQQALDSFARLEELMDASLAQQAGDPQALQRSRAVADLHQQLLMVRYQVRGYVFERSDKAEQAAFAAFDALRQAATTLRGQLPGEADAALEQAMGSLQGYRGGIEQFRAGVIRTRQAQQAMQSSTQDMARAGRTLTEAGRQLRESTASRDRAS |  | stoichiometry N [3]: 2; Kd [4]: 55 µM; Kd [5]: 5.9 µM |
